The text below walks through data of patent publication US10370333B2 (Sanford Burnham Prebys Medical Discovery Institute, priority 2012, dated 2019).

The structures appear in SMILES notation. Bounds are passed on as bounds.

The experiment deals with TNAP (Homo sapiens (Human), UniProt P05186). Kind of experiment: TNAP (PPi) inhibition assay, pyrophosphate as substrate. The class given is biochemical. Summed up:
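Secreted epitope-tagged human TNAP from transiently transfected COS-1 cells, dialyzed to remove phosphate. Inhibitors tested kinetically at pH 7.4 with PPi as substrate; released phosphate quantified colorimetrically with Biomol Green reagent.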

One may read the IC50 as the point on the concentration scale where inhibition reaches its midpoint. Higher therefore signals weaker potency. `O=S(=O)(Nc1cnc2ccccc2c1)c1cc(F)ccc1OC(F)(F)F` [Example X-2, 5-Fluoro-N-quinolin-3-yl-2-trifluoromethoxy-benzenesulfonamide]: the IC50 was 100 to 1000 nM.

Turning to `O=S(=O)(Nc1cnc2ccccc2c1)c1cc(Cl)ccc1OC(F)(F)F` [Example X-3, 5-Chloro-N-quinolin-3-yl-2-trifluoromethoxy-benzenesulfonamide], the IC50 is below 100 nM.

Consider `Cc1ccc(OC(F)(F)F)c(S(=O)(=O)Nc2cnc3ccccc3c2)c1` [Example X-4, 5-Methyl-N-quinolin-3-yl-2-trifluoromethoxy-benzenesulfonamide], for which the IC50 is below 100 nM.

The compound `Cc1ccc(OC(F)(F)F)cc1S(=O)(=O)Nc1cnc2ccccc2c1` [Example X-5, 2-methyl-N-quinolin-3-yl-5-trifluoromethoxy-benzenesulfonamide] displayed an IC50 above 1000 nM.

Consider `COc1ccc(OC(F)(F)F)cc1S(=O)(=O)Nc1cnc2ccccc2c1` [Example X-6, 2-Methoxy-N-(quinolin-3-yl)-5-(trifluoromethoxy)benzenesulfonamide], for which the IC50 was below 100 nM.

As to `COc1ccc(-c2cncc(NS(=O)(=O)c3cc(Cl)ccc3OC(F)(F)F)c2)cc1` [Example XI-1, 5-chloro-N-[5-(4-methoxy-phenyl)-pyridin-3-yl]-2-trifluoromethoxy-benzenesulfonamide], the IC50 is below 100 nM.

In turn, `COc1ccc(-c2cncc(NS(=O)(=O)c3cc(OC(F)(F)F)ccc3OC)c2)cc1` [Example XI-2, 2-Methoxy-N-(5-(4-methoxyphenyl)pyridin-3-yl)-5-(trifluoromethoxy)benzenesulfonamide] registered a half-maximal inhibitory concentration (IC50) below 100 nM.

Consider `O=S(=O)(Nc1cncc(-c2ccc(OC(F)(F)F)cc2)c1)c1cc(Cl)ccc1OC(F)(F)F` [Example XI-3, 5-Chloro-2-(trifluoromethoxy)-N-(5-(4-(trifluoromethoxy)phenyl)pyridin-3-yl)benzenesulfonamide], for which the half-inhibitory concentration (IC50) lay within 100 to 1000 nM.

For `O=S(=O)(Nc1cncc(-c2ccc(OC(F)(F)F)cc2)c1)c1cc(Br)ccc1OC(F)(F)F` [Example XI-4, 5-Bromo-2-(trifluoromethoxy)-N-(5-(4-(trifluoromethoxy)phenyl)pyridin-3-yl)benzenesulfonamide], the IC50 was 100 to 1000 nM.

On to `O=S(=O)(Nc1cncc(-c2ccc(F)cc2)c1)c1cc(Cl)ccc1OC(F)(F)F` [Example XI-8, 5-Chloro-N-(5-(4-fluorophenyl)pyridin-3-yl)-2-(trifluoromethoxy)benzenesulfonamide], for which the IC50 was below 100 nM.

For the compound `O=S(=O)(Nc1cncc(-c2ccc(F)cc2)c1)c1cc(Br)ccc1OC(F)(F)F` [Example XI-9, 5-Bromo-N-(5-(4-fluorophenyl)pyridin-3-yl)-2-(trifluoromethoxy)benzenesulfonamide], the IC50 is 100 to 1000 nM.

On to `COc1ccc(OC(F)(F)F)cc1S(=O)(=O)Nc1cncc(-c2ccc(F)cc2)c1` [Example XI-10, N-(5-(4-Fluorophenyl)pyridin-3-yl)-2-methoxy-5-(trifluoromethoxy)benzenesulfonamide], for which the IC50 lay in the range of 100 to 1000 nM.

In turn, `N#Cc1ccc(-c2cncc(NS(=O)(=O)c3cc(Br)ccc3OC(F)(F)F)c2)cc1` [Example XI-11, 5-Bromo-N-(5-(4-cyanophenyl)pyridin-3-yl)-2-(trifluoromethoxy)benzenesulfonamide] came in with an IC50 of 100 to 1000 nM.

Regarding `O=S(=O)(Nc1cncc(-c2ccco2)c1)c1cc(Cl)ccc1OC(F)(F)F` [Example XI-12, 5-Chloro-N-(5-(furan-2-yl)pyridin-3-yl)-2-(trifluoromethoxy)benzenesulfonamide], the 50% inhibitory concentration (IC50) is below 100 nM.

Regarding `COc1ccc(OC(F)(F)F)cc1S(=O)(=O)Nc1cncc(-c2ccco2)c1` [Example XI-13, N-(5-(Furan-2-yl)pyridin-3-yl)-2-methoxy-5-(trifluoromethoxy)benzenesulfonamide], the IC50 was below 100 nM.

Take `O=S(=O)(Nc1cncc(-c2cccs2)c1)c1cc(Cl)ccc1OC(F)(F)F` [Example XI-14, 5-Chloro-N-(5-(thiophen-2-yl)pyridin-3-yl)-2-(trifluoromethoxy)benzenesulfonamide]: the IC50 lay within 100 to 1000 nM.

Take `O=S(=O)(Nc1cncc(-c2cccs2)c1)c1cc(Br)ccc1OC(F)(F)F` [Example XI-15, 5-Bromo-N-(5-(thiophen-2-yl)pyridin-3-yl)-2-(trifluoromethoxy)benzenesulfonamide]: the IC50 lay in the range of 100 to 1000 nM.

In turn, `COc1ccc(OC(F)(F)F)cc1S(=O)(=O)Nc1cncc(-c2cccs2)c1` [Example XI-16, 2-Methoxy-N-(5-(thiophen-2-yl)pyridin-3-yl)-5-(trifluoromethoxy)benzenesulfonamide] yielded an IC50 below 100 nM.

Take `O=S(=O)(Nc1cncc(-c2ccccn2)c1)c1cc(Cl)ccc1OC(F)(F)F` [Example XI-17, N-([2,3′-Bipyridin]-5′-yl)-5-chloro-2-(trifluoromethoxy)benzenesulfonamide]: the 50% inhibitory concentration (IC50) is 100 to 1000 nM.

The compound `O=S(=O)(Nc1cncc(-c2ccccn2)c1)c1cc(Br)ccc1OC(F)(F)F` [Example XI-18, N-([2,3′-Bipyridin]-5′-yl)-5-bromo-2-(trifluoromethoxy)benzenesulfonamide] had an IC50 of 100 to 1000 nM.

Turning to `COc1ccc(OC(F)(F)F)cc1S(=O)(=O)Nc1cncc(-c2ccccn2)c1` [Example XI-19, N-([2,3′-Bipyridin]-5′-yl)-2-methoxy-5-(trifluoromethoxy)benzenesulfonamide], the IC50 fell in the range of 100 to 1000 nM.

For the compound `O=S(=O)(Nc1cncc(-c2cnccn2)c1)c1cc(Cl)ccc1OC(F)(F)F` [Example XI-20, 5-Chloro-N-(5-(pyrazin-2-yl)pyridin-3-yl)-2-(trifluoromethoxy)benzenesulfonamide], the IC50 lay in the range of 100 to 1000 nM.

Compound `O=S(=O)(Nc1cncc(-c2cnccn2)c1)c1cc(Br)ccc1OC(F)(F)F` [Example XI-21, 5-Bromo-N-(5-(pyrazin-2-yl)pyridin-3-yl)-2-(trifluoromethoxy)benzenesulfonamide] had an IC50 of 100 to 1000 nM.

For the compound `COc1ccc(OC(F)(F)F)cc1S(=O)(=O)Nc1cncc(-c2cnccn2)c1` [Example XI-22, 2-Methoxy-N-(5-(pyrazin-2-yl)pyridin-3-yl)-5-(trifluoromethoxy)benzenesulfonamide], the half-inhibitory concentration (IC50) was in the range of 100 to 1000 nM.

For `O=S(=O)(Nc1cncc(-c2ncccn2)c1)c1cc(Cl)ccc1OC(F)(F)F` [Example XI-23, 5-chloro-N-(5-(pyrimidin-2-yl)pyridin-3-yl)-2-(trifluoromethoxy)benzenesulfonamide], the IC50 was above 1000 nM.

Compound `O=S(=O)(Nc1cncc(-c2ncccn2)c1)c1cc(Br)ccc1OC(F)(F)F` [Example XI-24, 5-Bromo-N-(5-(pyrimidin-2-yl)pyridin-3-yl)-2-(trifluoromethoxy)benzenesulfonamide] yielded an IC50 of 100 to 1000 nM.

`O=S(=O)(Nc1cncc(-c2cncs2)c1)c1cc(Cl)ccc1OC(F)(F)F` [Example XI-25, 5-Chloro-N-(5-(thiazol-5-yl)pyridin-3-yl)-2-(trifluoromethoxy)benzenesulfonamide]: the IC50 fell in the range of 100 to 1000 nM.

`O=S(=O)(Nc1cncc(-c2cncs2)c1)c1cc(Br)ccc1OC(F)(F)F` [Example XI-26, 5-bromo-N-(5-(thiazol-5-yl)pyridin-3-yl)-2-(trifluoromethoxy)benzenesulfonamide] showed an IC50 below 100 nM.

In turn, `COc1ccc(OC(F)(F)F)cc1S(=O)(=O)Nc1cncc(-c2cncs2)c1` [Example XI-27, 2-Methoxy-N-(5-(thiazol-5-yl)pyridin-3-yl)-5-(trifluoromethoxy)benzenesulfonamide] registered an IC50 of 100 to 1000 nM.

The compound `O=S(=O)(Nc1cncc(-c2cscn2)c1)c1cc(Cl)ccc1OC(F)(F)F` [Example XI-28, 5-Chloro-N-(5-(thiazol-4-yl)pyridin-3-yl)-2-(trifluoromethoxy)benzenesulfonamide] showed an IC50 below 100 nM.

Compound `O=S(=O)(Nc1cncc(-c2cscn2)c1)c1cc(Br)ccc1OC(F)(F)F` [Example XI-29, 5-Bromo-N-(5-(thiazol-4-yl)pyridin-3-yl)-2-(trifluoromethoxy)benzenesulfonamide] gave an IC50 below 100 nM.

Turning to `COc1ccc(OC(F)(F)F)cc1S(=O)(=O)Nc1cncc(-c2cscn2)c1` [Example XI-30, 2-Methoxy-N-(5-(thiazol-4-yl)pyridin-3-yl)-5-(trifluoromethoxy)benzenesulfonamide], the IC50 is below 100 nM.

For `Cn1cc(-c2cncc(NS(=O)(=O)c3cc(Br)ccc3OC(F)(F)F)c2)cn1` [Example XI-31, 5-Bromo-N-(5-(1-methyl-1H-pyrazol-4-yl)pyridin-3-yl)-2-(trifluoromethoxy)benzenesulfonamide], the half-maximal inhibitory concentration (IC50) is below 100 nM.

Take `COc1ccc(OC(F)(F)F)cc1S(=O)(=O)Nc1cncc(-c2cnn(C)c2)c1` [Example XI-32, 2-Methoxy-N-(5-(1-methyl-1H-pyrazol-4-yl)pyridin-3-yl)-5-(trifluoromethoxy)benzenesulfonamide]: the IC50 was below 100 nM.

`COC(=O)c1cncc(NS(=O)(=O)c2cc(Cl)ccc2OC(F)(F)F)c1` [Example XII-1, Methyl 5-(5-chloro-2-(trifluoromethoxy)phenylsulfonamido)nicotinate] yielded an IC50 of 100 to 1000 nM.

`O=C(OC1CCCCC1)c1cncc(NS(=O)(=O)c2cc(Cl)ccc2OC(F)(F)F)c1` [Example XII-3, Cyclohexyl 5-(5-chloro-2-(trifluoromethoxy)phenylsulfonamido)nicotinate]: the IC50 is below 100 nM.

Consider `O=C(Oc1ccccc1)c1cncc(NS(=O)(=O)c2cc(Cl)ccc2OC(F)(F)F)c1` [Example XII-4, Phenyl 5-(5-chloro-2-(trifluoromethoxy)phenylsulfonamido)nicotinate], for which the IC50 is below 100 nM.

Take `CNC(=O)c1cncc(NS(=O)(=O)c2cc(Cl)ccc2OC(F)(F)F)c1` [Example XII-6, 5-(5-Chloro-2-(trifluoromethoxy)phenylsulfonamido)-N-methylnicotinamide]: the IC50 lay in the range of 100 to 1000 nM.

Consider `CCCNC(=O)c1cncc(NS(=O)(=O)c2cc(Cl)ccc2OC(F)(F)F)c1` [Example XII-7, 5-(5-Chloro-2-(trifluoromethoxy)phenylsulfonamido)-N-propylnicotinamide], for which the 50% inhibitory concentration (IC50) was above 1000 nM.
